Experimental findings from the supplement of paper PMC11208160 are described below.

This data set is described as follows: recombinant barcode read abundance after kanamycin selection (control-corrected) (log10(CPM+1)); higher = more efficient recombination; sequences stand for … in AGTGCAGAGAAAATCGGCCAGTTTTCTCTGCCTGCAGTCCGCATGCCGT…ATTTATGCAGCGGACTGCCTTTCTCCCAAAGTGATAAACCGGACAGTATCATGGACCGGTTTTCCCGGTAATCCGTATTTGCAAGGTTGGTTTCACT; site = the 11-nt target. The method in brief: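 In a pooled screen in E. coli, targets were paired with target-binding loops of the IS621 bridge RNA. Each oligo carried a promoter, a target, a barcode and the first 104 bridge RNA bases driven by J23119, and was Gibson-cloned into a vector holding the remaining 73 bp and a T7-inducible recombinase before co-electroporation with a donor plasmid. Duplicate platings went onto chloramphenicol/ampicillin LB agar as the control or onto chloramphenicol/ampicillin/kanamycin with 0.1 mM IPTG. Recombination efficiency is the averaged, control-corrected count per million of barcodes at recombinant junctions, given as log10(CPM+1).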
As to “GAGTCCTAATGGGTTCTAACCTGTTGCCTTT [GAGTCCTCTAG_LTGcore_AA_RTGcore_AA] (site GAGTCCTCTAG) (LTG core: AA, RTG core: AA)”, the “recombinant barcode read abundance (log10)” value worked out at 0.11.

Consider “GAGTCCTCTTGGGTTCTAACCTGTTGCCTCA [GAGTCCTCTAG_LTGcore_CT_RTGcore_TG] (site GAGTCCTCTAG) (LTG core: CT, RTG core: TG)”, for which the “recombinant barcode read abundance (log10)” value is 0.316.

“GAGTCCTCTTGGGTTCTAACCTGTTGCCTCG [GAGTCCTCTAG_LTGcore_CT_RTGcore_CG] (site GAGTCCTCTAG) (LTG core: CT, RTG core: CG)”: the “recombinant barcode read abundance (log10)” value was determined as 1.19.

Consider “GAGTCCTCTTGGGTTCTAACCTGTTGCCTGT [GAGTCCTCTAG_LTGcore_CT_RTGcore_AC] (site GAGTCCTCTAG) (LTG core: CT, RTG core: AC)”, for which the “recombinant barcode read abundance (log10)” value is 0.0922.

“GAGTCCTGGTGGGTTCTAACCTGTTGCCTAG [GAGTCCTCTAG_LTGcore_GG_RTGcore_CT] (site GAGTCCTCTAG) (LTG core: GG, RTG core: CT)”: the “recombinant barcode read abundance (log10)” value came out at 0.165.

Regarding “GAGTCCTGTTGGGTTCTAACCTGTTGCCTAG [GAGTCCTCTAG_LTGcore_GT_RTGcore_CT] (site GAGTCCTCTAG) (LTG core: GT, RTG core: CT)”, the “recombinant barcode read abundance (log10)” value came to 0.165.

For “GAGTCCTTGTGGGTTCTAACCTGTTGCCTAG [GAGTCCTCTAG_LTGcore_TG_RTGcore_CT] (site GAGTCCTCTAG) (LTG core: TG, RTG core: CT)”, the “recombinant barcode read abundance (log10)” value turned out to be 0.0483.

For the sequence “GCGCGACAGTGGGTTCTAACCTGTTGCTTCT [GCGCGACCTAA_LTGcore_AG_RTGcore_AG] (site GCGCGACCTAA) (LTG core: AG, RTG core: AG)”, the “recombinant barcode read abundance (log10)” value came out at 0.313.

Take “GCGCGACATTGGGTTCTAACCTGTTGCTTAG [GCGCGACCTAA_LTGcore_AT_RTGcore_CT] (site GCGCGACCTAA) (LTG core: AT, RTG core: CT)”: the “recombinant barcode read abundance (log10)” value came out at 0.0488.

Consider “GCGCGACATTGGGTTCTAACCTGTTGCTTAT [GCGCGACCTAA_LTGcore_AT_RTGcore_AT] (site GCGCGACCTAA) (LTG core: AT, RTG core: AT)”, for which the “recombinant barcode read abundance (log10)” value came out at 0.493.

Regarding “GCGCGACCTTGGGTTCTAACCTGTTGCTTAG [GCGCGACCTAA_LTGcore_CT_RTGcore_CT] (site GCGCGACCTAA) (LTG core: CT, RTG core: CT)”, the “recombinant barcode read abundance (log10)” value was found to be 0.515.

In the case of “GCGCGACGATGGGTTCTAACCTGTTGCTTTC [GCGCGACCTAA_LTGcore_GA_RTGcore_GA] (site GCGCGACCTAA) (LTG core: GA, RTG core: GA)”, the “recombinant barcode read abundance (log10)” value amounted to 0.0229.

Regarding “GCGCGACTGTGGGTTCTAACCTGTTGCTTAG [GCGCGACCTAA_LTGcore_TG_RTGcore_CT] (site GCGCGACCTAA) (LTG core: TG, RTG core: CT)”, the “recombinant barcode read abundance (log10)” value came out at 0.0192.

With “GCGCGACTTTGGGTTCTAACCTGTTGCTTAA [GCGCGACCTAA_LTGcore_TT_RTGcore_TT] (site GCGCGACCTAA) (LTG core: TT, RTG core: TT)”, the “recombinant barcode read abundance (log10)” value was 0.108.

For “GCGGGACCGTGGGTTCTAACCTGTTGCCTCG [GCGGGACCTAG_LTGcore_CG_RTGcore_CG] (site GCGGGACCTAG) (LTG core: CG, RTG core: CG)”, the “recombinant barcode read abundance (log10)” value is 0.248.

With “GCGGGACCTTGGGTTCTAACCTGTTGCCTAA [GCGGGACCTAG_LTGcore_CT_RTGcore_TT] (site GCGGGACCTAG) (LTG core: CT, RTG core: TT)”, the “recombinant barcode read abundance (log10)” value was 1.15.

Take “GCGGGACCTTGGGTTCTAACCTGTTGCCTAC [GCGGGACCTAG_LTGcore_CT_RTGcore_GT] (site GCGGGACCTAG) (LTG core: CT, RTG core: GT)”: the “recombinant barcode read abundance (log10)” value was 0.997.

With “GCGGGACCTTGGGTTCTAACCTGTTGCCTAG [GCGGGACCTAG_LTGcore_CT_RTGcore_CT] (site GCGGGACCTAG) (LTG core: CT, RTG core: CT)”, the “recombinant barcode read abundance (log10)” value was determined as 2.64.

As for “GCGGGACCTTGGGTTCTAACCTGTTGCCTAT [GCGGGACCTAG_LTGcore_CT_RTGcore_AT] (site GCGGGACCTAG) (LTG core: CT, RTG core: AT)”, the “recombinant barcode read abundance (log10)” value came out at 1.68.

As for “GCGGGACCTTGGGTTCTAACCTGTTGCCTCG [GCGGGACCTAG_LTGcore_CT_RTGcore_CG] (site GCGGGACCTAG) (LTG core: CT, RTG core: CG)”, the “recombinant barcode read abundance (log10)” value turned out to be 1.7.

With “GCGGGACCTTGGGTTCTAACCTGTTGCCTGA [GCGGGACCTAG_LTGcore_CT_RTGcore_TC] (site GCGGGACCTAG) (LTG core: CT, RTG core: TC)”, the “recombinant barcode read abundance (log10)” value amounted to 0.0737.

For “GCGGGACCTTGGGTTCTAACCTGTTGCCTTG [GCGGGACCTAG_LTGcore_CT_RTGcore_CA] (site GCGGGACCTAG) (LTG core: CT, RTG core: CA)”, the “recombinant barcode read abundance (log10)” value turned out to be 1.08.

Turning to “GCGGGACGATGGGTTCTAACCTGTTGCCTAG [GCGGGACCTAG_LTGcore_GA_RTGcore_CT] (site GCGGGACCTAG) (LTG core: GA, RTG core: CT)”, the “recombinant barcode read abundance (log10)” value came to 0.171.

For “GCGGGACTATGGGTTCTAACCTGTTGCCTTA [GCGGGACCTAG_LTGcore_TA_RTGcore_TA] (site GCGGGACCTAG) (LTG core: TA, RTG core: TA)”, the “recombinant barcode read abundance (log10)” value worked out at 0.214.

For the sequence “GCGGGACTGTGGGTTCTAACCTGTTGCCTAG [GCGGGACCTAG_LTGcore_TG_RTGcore_CT] (site GCGGGACCTAG) (LTG core: TG, RTG core: CT)”, the “recombinant barcode read abundance (log10)” value stood at 0.316.

Consider “GCGGGACTTTGGGTTCTAACCTGTTGCCTAA [GCGGGACCTAG_LTGcore_TT_RTGcore_TT] (site GCGGGACCTAG) (LTG core: TT, RTG core: TT)”, for which the “recombinant barcode read abundance (log10)” value turned out to be 0.186.

Regarding “GGACACCAATGGGTTCTAACCTGTTGCCTAG [GGACACCCTAG_LTGcore_AA_RTGcore_CT] (site GGACACCCTAG) (LTG core: AA, RTG core: CT)”, the “recombinant barcode read abundance (log10)” value turned out to be 0.294.

Take “GGACACCACTGGGTTCTAACCTGTTGCCTGT [GGACACCCTAG_LTGcore_AC_RTGcore_AC] (site GGACACCCTAG) (LTG core: AC, RTG core: AC)”: the “recombinant barcode read abundance (log10)” value was found to be 0.54.

On to “GGACACCCATGGGTTCTAACCTGTTGCCTAG [GGACACCCTAG_LTGcore_CA_RTGcore_CT] (site GGACACCCTAG) (LTG core: CA, RTG core: CT)”, for which the “recombinant barcode read abundance (log10)” value turned out to be 0.765.

In the case of “GGACACCCATGGGTTCTAACCTGTTGCCTTG [GGACACCCTAG_LTGcore_CA_RTGcore_CA] (site GGACACCCTAG) (LTG core: CA, RTG core: CA)”, the “recombinant barcode read abundance (log10)” value stood at 0.0906.

On to “GGACACCCCTGGGTTCTAACCTGTTGCCTAG [GGACACCCTAG_LTGcore_CC_RTGcore_CT] (site GGACACCCTAG) (LTG core: CC, RTG core: CT)”, for which the “recombinant barcode read abundance (log10)” value turned out to be 1.3.

“GGACACCCGTGGGTTCTAACCTGTTGCCTCG [GGACACCCTAG_LTGcore_CG_RTGcore_CG] (site GGACACCCTAG) (LTG core: CG, RTG core: CG)”: the “recombinant barcode read abundance (log10)” value was 0.314.
